Test results published in patent publication US4283422A (priority 1979, dated 1981).
Structures can show the parent of a compound that is named as a salt. Where two headings read alike, the source gives them in different places.

How the values were obtained:
[1] = system: Influenza A/PR/3/34 (HO, Nl) strain; assay: microbe, parasite or virus in culture; type: cell-based; conditions: for HA-titer / MIC: MDCK cells; for HA-titer: 34° C., 3 days, control 256; for MIC: 72 h, Influenza virus; for inhibitory effects on Influenza virus growth: comparison of the two compounds, in words
in vitro = conditions: dog, mdck
MDCK cells = conditions: 3 days, microscopic CTE
Newcastle disease virus = conditions: Koji Aigami et al., J. of Medicinal Chemistry, vol. 19, 536 (1976); cited from earlier work

SMILES	HA-titer ([1]; 12.5 mcg/ml)	HA-titer ([1]; 25.0 mcg/ml)	MIC [1]	inhibitory effects on Influenza virus growth [1]	MNTC at 72 h (in vitro)	Cytotoxicity (MDCK cells; 12.5 mcg/ml)	Cytotoxicity (MDCK cells; 25.0 mcg/ml)	antiviral activity against Newcastle disease virus (Newcastle disease virus)	HA-titer ([1]; 50.0 mcg/ml)	Cytotoxicity (MDCK cells; 50.0 mcg/ml)
NC12CC3CC(CC(C3)C1)C2 [Amantadine hydrochloride]	64	< 4	< 12.5 mg/L	equivalent inhibitory effects on Influenza virus growth	12.5 µg/mL	(±) (CTE is less than 10% of cells.)	(+) (CTE is more than 10% and less than 50% of cells.)			
NC12CCCC3CC(CCC31)C2 (stereo not shown) [3-amino-4-homoisotwistane hydrochloride]								have antiviral activity against Newcastle disease virus		
CN(C)C12CCCC3CC(CCC31)C2 (stereo not shown)	64	64	< 12.5 mg/L	equivalent inhibitory effects on Influenza virus growth	25 µg/mL		(±) (CTE is less than 10% of cells.)		< 4	(+) (CTE is more than 10% and less than 50% of cells.)
